The test system of this assay is L1210 leukemia ip in BDF1 mice, survival T/C. The experiment in a line: NCI In Vivo Anticancer Drug Screen. Data for tumor model L1210 Leukemia (intraperitoneal) in B6D2F1 (BDF1) mice. To be noted: endpoint: mean survival time, higher = longer survival. The method, boiled down:
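In this screen, tumor-bearing mice given compound are compared to those given vehicle, and their survival values are reported as a treated-to-control quotient.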

Setting [1] is: dose: 100.0 mg/kg/injection, schedule: Q01DX001 (ip), vehicle: saline.
The mark [2] stands for this setting: dose: 200.0 mg/kg/injection, schedule: Q01DX001 (ip), vehicle: saline.
The mark [3] stands for this setting: dose: 400.0 mg/kg/injection, schedule: Q01DX001 (ip), vehicle: saline.
Where [4] appears, read: dose: 100.0 mg/kg/injection, schedule: Q01DX001 (ip), vehicle: Klucel (hydroxypropylcellulose) (HPC).
Where [5] appears, read: dose: 200.0 mg/kg/injection, schedule: Q01DX001 (ip), vehicle: Klucel (hydroxypropylcellulose) (HPC).

The structures appear in SMILES notation. Toxic doses and inconclusive results are not listed.

For the compound `O=C(O)c1cccc2c1C(=O)c1cc(Cl)ccc1-2`, the T/C is 96 % of control (dose: 75.0 mg/kg/injection, schedule: Q01DX001 (ip), vehicle: carboxymethylcellulose (CMC)) and 102 % of control (dose: 150.0 mg/kg/injection, schedule: Q01DX001 (ip), vehicle: carboxymethylcellulose (CMC)).
On to `CC(=O)n1c2ccccc2c2nc3cnccc3nc21`, for which the T/C is 97 % of control (dose: 16.0 mg/kg/injection, schedule: Q01DX005 (ip), vehicle: saline); 97 % of control (dose: 32.0 mg/kg/injection, schedule: Q01DX005 (ip), vehicle: saline); 107 % of control (dose: 64.0 mg/kg/injection, schedule: Q01DX005 (ip), vehicle: saline).
`CN(C)Cc1cccc(C(F)(F)F)c1C(O)c1ccccc1` (centres undefined): the T/C reads like this: (dose: 50.0 mg/kg/injection, schedule: Q01DX001 (ip), vehicle: saline) 100 % of control; under setting [1], 94 % of control; under setting [2], 103 % of control; under setting [3], 100 % of control.
Turning to `CC1=NNC(=O)C1`, the T/C is 100 % of control (dose: 50.0 mg/kg/injection, schedule: Q01DX009 (ip), vehicle: carboxymethylcellulose (CMC)); 114 % of control (dose: 100.0 mg/kg/injection, schedule: Q01DX009 (ip), vehicle: carboxymethylcellulose (CMC)); 89 % of control (dose: 100.0 mg/kg/injection, schedule: Q04DX003 (ip), vehicle: Klucel (hydroxypropylcellulose) (HPC)); 112 % of control (dose: 100.0 mg/kg/injection, schedule: Q04DX003 (ip), vehicle: saline with Tween-80); 114 % of control (dose: 200.0 mg/kg/injection, schedule: Q01DX009 (ip), vehicle: carboxymethylcellulose (CMC)); 98 % of control (dose: 200.0 mg/kg/injection, schedule: Q04DX003 (ip), vehicle: Klucel (hydroxypropylcellulose) (HPC)). In addition, the T/C was 105 % of control (dose: 200.0 mg/kg/injection, schedule: Q04DX003 (ip), vehicle: saline with Tween-80); 96 % of control (dose: 400.0 mg/kg/injection, schedule: Q04DX003 (ip), vehicle: Klucel (hydroxypropylcellulose) (HPC)); 112 % of control (dose: 400.0 mg/kg/injection, schedule: Q04DX003 (ip), vehicle: saline with Tween-80).
Regarding `O=C(O)c1cc(Br)c(-c2c(Br)cc(C(=O)O)cc2[N+](=O)[O-])c([N+](=O)[O-])c1`, the T/C (dose: 50.0 mg/kg/injection, schedule: Q01DX001 (ip), vehicle: Klucel (hydroxypropylcellulose) (HPC)) was 95 % of control; the T/C under setting [4] is 106 % of control; the T/C under setting [5] was 95 % of control.
Consider `Nc1ccc(OCCNS(=O)(=O)c2cccc(S(=O)(=O)F)c2)c(Cl)c1`, for which the T/C reads like this: (dose: 50.0 mg/kg/injection, schedule: Q01DX009 (ip), vehicle: saline) 97 % of control; (dose: 100.0 mg/kg/injection, schedule: Q01DX009 (ip), vehicle: saline) 102 % of control; (dose: 100.0 mg/kg/injection, schedule: Q04DX003 (ip), vehicle: saline) 97 % of control; (dose: 200.0 mg/kg/injection, schedule: Q04DX003 (ip), vehicle: saline) 97 % of control.
`CN1CCN=C1c1ccc(NC(=O)c2ccc(C(=O)Nc3ccc(C4=NCCN4C)cc3)c(N)c2)cc1`: the T/C is 242 % of control (dose: 3.0 mg/kg/injection, schedule: Q01DX Z (ip), vehicle: carboxymethylcellulose (CMC)); 159 % of control (dose: 6.0 mg/kg/injection, schedule: Q01DX Z (ip), vehicle: carboxymethylcellulose (CMC)); 98 % of control (dose: 6.0 mg/kg/injection, schedule: Q01DX Z (oral), vehicle: water); 103 % of control (dose: 12.0 mg/kg/injection, schedule: Q01DX Z (ip), vehicle: carboxymethylcellulose (CMC)); 95 % of control (dose: 12.0 mg/kg/injection, schedule: Q01DX Z (oral), vehicle: water); 98 % of control (dose: 24.0 mg/kg/injection, schedule: Q01DX Z (oral), vehicle: water). In addition, the T/C (dose: 48.0 mg/kg/injection, schedule: Q01DX Z (oral), vehicle: water) was 101 % of control.
Turning to `CC(C)=CCC/C(C)=C\C(N)=O`, the T/C is, setting by setting: under setting [1], 106 % of control; under setting [2], 92 % of control; under setting [3], 111 % of control.
On to `CC1CCNCC1`, for which the T/C runs as follows: (dose: 100.0 mg/kg/injection, schedule: Q04DX002 (ip), vehicle: saline) 105 % of control; (dose: 200.0 mg/kg/injection, schedule: Q04DX002 (ip), vehicle: saline) 102 % of control; (dose: 400.0 mg/kg/injection, schedule: Q04DX002 (ip), vehicle: saline) 94 % of control.
In the case of `CN1CN(c2ccccc2)C2(CCN(CC3Cc4cc(F)ccc4O3)CC2)C1=O` (centres undefined), the T/C was 101 % of control under setting [4]; 98 % of control under setting [5]; 96 % of control (dose: 400.0 mg/kg/injection, schedule: Q01DX001 (ip), vehicle: Klucel (hydroxypropylcellulose) (HPC)).
For the compound `CCN(CC)c1ccc(C(=S)c2ccc(N(CC)CC)cc2)cc1`, the T/C was 91 % of control (dose: 100.0 mg/kg/injection, schedule: Q01DX001 (ip), vehicle: other); 91 % of control (dose: 200.0 mg/kg/injection, schedule: Q01DX001 (ip), vehicle: other); 95 % of control (dose: 400.0 mg/kg/injection, schedule: Q01DX001 (ip), vehicle: other).
With `O=[N+]([O-])c1cc(S(=O)(=O)c2ccc(Cl)c([N+](=O)[O-])c2)ccc1Cl`, the T/C runs as follows: (dose: 25.0 mg/kg/injection, schedule: Q01DX009 (ip), vehicle: Klucel (hydroxypropylcellulose) (HPC)) 92 % of control; (dose: 50.0 mg/kg/injection, schedule: Q01DX009 (ip), vehicle: Klucel (hydroxypropylcellulose) (HPC)) 92 % of control; (dose: 100.0 mg/kg/injection, schedule: Q01DX009 (ip), vehicle: Klucel (hydroxypropylcellulose) (HPC)) 90 % of control; (dose: 200.0 mg/kg/injection, schedule: Q01DX009 (ip), vehicle: Klucel (hydroxypropylcellulose) (HPC)) 92 % of control; (dose: 400.0 mg/kg/injection, schedule: Q01DX009 (ip), vehicle: Klucel (hydroxypropylcellulose) (HPC)) 87 % of control.
